# Data from US10213409B2, “Substituted benzofurans, benzothiophenes, benzoselenophenes and indoles and their use as tubulin polymerisation inhibitors” (Bionomics Limited, priority 2006, dated 2019).
# pIC50: −log10 of the molar value.
# How the values were obtained:
# Format in all cases: cell-based
# [1] = test system: Human umbilical vein endothelial cells (HUVECs), tumour type activated (Tum); assay: Proliferation Assay - Activated Endothelium (MTT); conditions: Homo sapiens, HUVEC; tumour type activated endothelial cells
# Experimental: Proliferation Assay—Activated Endothelium:
# (§1) Cells were cultured overnight at 37° C. 5% CO2. Medium was subsequently replaced with fresh medium including the compound or negative control. Cells were cultured for a period of 48 hrs. An MTT assay was performed to measure changes in cell numbers. Briefly, 20 μl of MTT reagent was added to cells containing 100 μl of EGM2 and incubated at 37° C. for 2 hours.
# [2] = test system: Human umbilical vein endothelial cells (HUVECs), normal quiescent type (Norm); assay: Proliferation Assay - Quiescent Endothelium (MTT); conditions: HUVEC
# Experimental: Proliferation Assay—Quiescent Endothelium:
# as §1, with “EBM2+0.5% FBS” for “EGM2”
# MCF-7 = assay: Growth inhibition, Sulforhodamine B (SRB) or Systmex cell counting (CC) assay, MCF-7; conditions: Homo sapiens, MCF7, concentration required to inhibit net cell growth by 50%, read-out: Cancer cell line IC50
pIC50 (MCF-7),Compound,pIC50 [1],pIC50 [2]
–,"COc1ccc2c(C(=O)c3cc(OC)c(OC)c(OC)c3)c[nH]c2c1 [Comparator H, reference compound]",8.00 to 9.00,8.00 to 9.00
–,"COC(=O)CN(C)Cc1oc2c(O)c(OC)ccc2c1C(=O)c1cc(OC)c(OC)c(OC)c1 [Example 43, 2-[(N-Methyl-2-amino-aceticacid methyl ester)-methenyl)-3-(3,4,5-trimethoxybenzoyl)-6-methoxy-7-hydroxy-benzo[b]furan]",8.00 to 9.00,8.00 to 9.00
–,"COc1cc(C(=O)c2c(N)oc3c(O)c(OC)ccc23)cc(OC)c1OC [Example 19, (2-Amino-7-hydroxy-6-methoxy-benzofuran-3-yl)-(3,4,5-trimethoxyphenyl)-methanone]",8.00 to 9.00,8.00 to 9.00
–,"COc1cc(C(=O)c2c(Cn3ccnc3)oc3c(O)c(OC)ccc23)cc(OC)c1OC [Example 35, 2-(1H-Imidazol-1-yl)methyl-3-(3,4,5-trimethoxybenzoyl)-6-methoxy-7-hydroxy-benzo[b]furan]",8.00 to 9.00,8.00 to 9.00
6.24,"COc1ccc2c(C(=O)c3cc(OC)c(OC)c(OC)c3)c(O)oc2c1 [Example 30, (2-Hydroxy-6-methoxybenzofuran-3-yl)(3,4,5-trimethoxyphenyl)methanone, reference compound]",6.00 to 7.00,6.00 to 7.00
7.46,"COc1cc(OC)cc(C(=O)c2coc3c(O)c(OC)ccc23)c1 [Example 52, 3-(3,5-Dimethoxybenzoyl)-7-hydroxy-6-methoxybenzo[b]furan]",6.00 to 7.00,6.00 to 7.00
8.70,"COC(=O)/C=C/c1oc2c(O)c(OC)ccc2c1C(=O)c1cc(OC)c(OC)c(OC)c1 [Example 14, (E)-3-[7-Hydroxy-6-methoxy-3-(3,4,5-trimethoxy-benzoyl)-benzofuran-2-yl]-acrylic acid methyl ester]",9.00 to 10.00,8.00 to 9.00
–,"COc1ccc2c(C(=O)c3cc(OC)c(OC)c(OC)c3)c(C)sc2c1 [Example 51, 6-Methoxy-2-methyl-3-(3,4,5-trimethoxybenzoyl)benzo[b]thiophene, reference compound]",8.00 to 9.00,8.00 to 9.00
8.10,CCC/C=C/c1oc2c(O)c(OC)ccc2c1C(=O)c1cc(OC)c(OC)c(OC)c1 [Example 13],8.00 to 9.00,8.00 to 9.00
–,"COc1cc(C(=O)c2c(NCCNC(=N)N)oc3c(O)c(OC)ccc23)cc(OC)c1OC [Example 28, 1-[2-(7-hydroxy-6-methoxy-3-(3,4,5-trimethoxybenzoyl)benzofuran-2-ylamino)ethyl]guanidine]",6.00 to 7.00,7.00 to 8.00
–,"COc1cc(C(=O)c2c(CN3CCN(C)CC3)oc3c(O)c(OC)ccc23)cc(OC)c1OC [Example 37, 2-(4-Methylpiperazin-1-yl)methyl-3-(3,4,5-tri-methoxy-benzoyl)-6-methoxy-7-hydroxy-benzo[b]furan]",7.00 to 8.00,7.00 to 8.00
–,"COc1cc(C(=O)c2c(CN(C)CC(=O)O)oc3c(O)c(OC)ccc23)cc(OC)c1OC [Example 44, 2-[(N-Methyl-2-amino-aceticacid)-methenyl)-3-(3,4,5-trimethoxybenzoyl)-6-methoxy-7-hydroxy-benzo[b]furan]",7.00 to 8.00,7.00 to 8.00
–,"COc1cc(C(=O)c2c(C)[nH]c3c(O)c(OC)ccc23)cc(OC)c1O [Example 40, 3-(3,5-Dimethoxy-4-hydroxybenzoyl)-7-hydroxy-6-methoxy-2-methyl-1H-indole]",8.00 to 9.00,7.00 to 8.00
7.46,"COc1cc(C(=O)c2c(NN)oc3c(O)c(OC)ccc23)cc(OC)c1OC [Example 10, 2-Hydrazino-7-hydroxy-6-methoxy-3-(3,4,5-trimethoxybenzoyl)-benzofuran]",8.00 to 9.00,7.00 to 8.00
–,"COc1cc(C(=O)c2c(C)oc3c(O)c(OC)ccc23)cc(OC)c1O [Example 46, 3-(4-Hydroxy-3,5-di-methoxy-benzoyl)-7-hydroxy-6-methoxy-2-Methyl-benzo[b]furan]",7.00 to 8.00,6.00 to 7.00
–,"COc1cc(C(=O)c2c(Cn3nnc(N)n3)oc3c(O)c(OC)ccc23)cc(OC)c1OC [Example 36, 2-(5-amino-2H-tetrazol-2-yl)-methyl-3-(3,4,5-tri-methoxy-benzoyl)-6-methoxy-7-hydroxy-benzo[b]furan]",8.00 to 9.00,8.00 to 9.00
6.10,"COc1ccc2c(C(=O)c3c(F)c(F)c(F)c(F)c3F)coc2c1O [Example 53, 3-(Pentafluorobenzoyl)-6-methoxy-7-hydroxybenzo[b]furan]",< 6.00,< 6.00
–,"COc1cc(C(=O)c2c(C)[nH]c3c(O)c(OC)ccc23)cc(OC)c1OC [Example 39, 7-Hydroxy-6-methoxy-2-methyl-3-(3,4,5-trimethoxybenzoyl)-1H-indole]",10.00 to 11.00,9.00 to 10.00
–,"COc1cc(C(=O)c2c(CN(C)C)oc3c(O)c(OC)ccc23)cc(OC)c1OC [Example 34, 2-Dimethylaminomethylene-3-(3,4,5-tri-methoxy-benzoyl)-6-methoxy-7-hydroxy-benzo[b]furan]",8.00 to 9.00,8.00 to 9.00
–,"COc1cc(C(=O)c2c(NCCS(N)(=O)=O)oc3c(O)c(OC)ccc23)cc(OC)c1OC [Example 45, 2-N-(Aminoethanesulphonamide)-3-(3,4,5-trimethoxybenzoyl)-6-methoxy-7-hydroxy-benzo[b]furan]",8.00 to 9.00,8.00 to 9.00
–,"COc1cc(C(=O)c2c(NCCNC(=O)OC(C)(C)C)oc3c(O)c(OC)ccc23)cc(OC)c1OC [Example 26, tert-Butyl-2-(7-hydroxy-6-methoxy-3-(3,4,5-trimethoxybenzoyl)benzofuran-2-ylamino)ethyl carbamate]",8.00 to 9.00,8.00 to 9.00
–,"COc1cc(C(=O)c2c(C)sc3c(O)c(OC)ccc23)cc(OC)c1OC [Example 42, 7-Hydroxy-6-methoxy-2-methyl-3-(3,4,5-trimethoxybenzoyl)benzo[b]thiophene]",9.00 to 10.00,8.00 to 9.00

Compound,pIC50 (MCF-7),pIC50 [1],pIC50 [2]
"COc1ccc(/C=C\c2cc(OC)c(OC)c(OC)c2)cc1OP(=O)(O)O [Comparator B, reference compound]",8.30,8.00 to 9.00,8.00 to 9.00
"C#Cc1oc2c(O)c(OC)ccc2c1C(=O)c1cc(OC)c(OC)c(OC)c1 [Example 8, 2-Ethynyl-7-hydroxy-6-methoxy-3-(3,4,5-trimethoxybenzoyl)-benzofuran]",8.48,8.00 to 9.00,8.00 to 9.00
"CNc1oc2c(O)c(OC)ccc2c1C(=O)c1cc(OC)c(OC)c(OC)c1 [Example 18, 2-(N-Methylamino)-7-hydroxy-3-(3,4,5-trimethoxybenzoyl)-6-methoxy-benzofuran]",8.46,8.00 to 9.00,9.00 to 10.00
"COc1ccc(/C=C\c2cc(OC)c(OC)c(OC)c2)cc1O [Comparator A, reference compound]",8.30,8.00 to 9.00,8.00 to 9.00
"COc1ccc2c(C(=O)c3cc(OC)c(OC)c(OC)c3)coc2c1 [Example 5, 3-(3,4,5-Trimethoxybenzoyl)-6-methoxy-benzofuran, reference compound]",7.26,7.00 to 8.00,7.00 to 8.00
